Measured values taken from publication PMC9604729, “Unusual Tetrahydropyridoindole-Containing Tetrapeptides with Human Nicotinic Acetylcholine Receptors Targeting Activity Discovered from Antarctica-Derived Psychrophilic Pseudogymnoascus sp. HDN17-933” (Marine Drugs, 2022).
Several values for one entry are separate records, joined by “and”; a condition that tells them apart may be missing. Identical values can stand only once. Like-named read-outs stand apart in the source and are kept apart here. Square brackets hold non-standard residues; d marks the D form. Ends that are not written are not given here. Peptide text beside a SMILES is read from it. Tpi = O=C(O)[C@@H]1Cc2c([nH]c3ccccc23)CN1

Columns and labels:
human (h) α1β1γδ nAChR = biological target: T1, human (h) α1β1γδ nAChR (Homo sapiens, UniProt P02708+P07510+P11230+Q07001); assay: Two-electrode voltage clamp, inhibition of ACh-evoked currents at hα1β1γδ nAChR in Xenopus oocytes; assay type: cell-based; conditions: for Relative current amplitude (h)α1β1γδ: compound 100 µM, currents activated by 5 μM ACh, ratio ACh + compound to ACh alone, mean ± SD, n = 6–11
T1 construct: host or cells: Xenopus laevis oocytes, cRNA injected
Method: (§1) All procedures were approved by the University of Wollongong Animal Ethics Committees (project number: AE2003). Female Xenopus laevis were sourced from Nasco (Fort Atkinson, WI, USA), and a maximum of four frogs were kept in a 15 L aquarium at 20–26 °C with 12 h light/dark cycle. Oocytes were obtained from five-year-old frogs anesthetized with 1.7 mg/mL ethyl 3-aminobenzoate methanesulfonate (pH 7.4 with NaHCO3). Stage V-VI oocytes (Dumont’s classification; 1200–1300 μm diameter) were defolliculated with 1.5 mg/mL collagenase Type II (Worthington Biochemical Corp., Lakewood, NJ, USA) at room temperature for 1–2 h in OR-2 solution containing (in mM): 82.5 NaCl, 2 KCl, 1 MgCl2 and 5 HEPES at pH 7.4.
(§2) The human muscle nAChR clones (α1, β1, γ, δ and ε) were purchased from Integrated DNA Technologies (Coralville, IA, USA), whereas the human α3, α9, α10, β2, and β4 clones were purchased from OriGene (Rockville, MD, USA), and all were subsequently inserted into the pT7TS vector. The human α4 and α7 clones were obtained from Prof. Jon Lindstrom (University of Pennsylvania, Philadelphia, PA, USA). Plasmid constructs of the human nAChR clones were linearized for in vitro mRNA synthesis using mMessage mMachine transcription kit (AMBION, Forster City, CA, USA).
(§3) Oocytes were injected with 5 ng cRNA for hα1β1γδ, hα1β1εδ, hα3β2, hα3β4 and hα4β2, 10 ng cRNA for hα7 nAChR, and 35 ng cRNA for hα9α10 nAChR (concentration confirmed spectrophotometrically and by gel electrophoresis). The muscle subunit cRNA ratio was 2:1:1:1 (α1:β1: γ/ε:δ), whereas the heteromeric α and β subunit cRNA ratio was 1:1, injected using glass pipettes pulled from glass capillaries (3-000-203 GX, Drummond Scientific Co., Broomall, PA, USA). Oocytes were incubated at 18 °C in sterile ND96 solution composed of (in mM): 96 NaCl, 2 KCl, 1 CaCl2, 1 MgCl2, and 5 HEPES at pH 7.4, supplemented with 5% fetal bovine serum, 50 mg/L gentamicin (GIBCO, Grand Island, NY, USA) and […] penicillin-streptomycin (GIBCO).
(§4) Electrophysiological recordings were carried out 2–5 days post cRNA microinjection. Two-electrode voltage clamp recordings of X. laevis oocytes expressing human nAChRs were performed at room temperature (21–24 °C) using a GeneClamp 500B amplifier and pClamp9 software interface (Molecular Devices, Sunnyvale, CA, USA) at a holding potential −80 mV. Voltage-recording and current-injecting electrodes were pulled from GC150T-7.5 borosilicate glass (Harvard Apparatus, Holliston, MA) and filled with 3 M KCl, giving resistances of 0.3–1 MΩ. Due to the Ca^2+ permeability of α9α10 nAChRs, 100 µM BAPTA-AM incubation was carried out before recording to prevent the activation of X. laevis oocyte endogenous Ca^2+-activated chloride channels. Oocytes expressing hα9α10 nAChRs were perfused with ND115 solution containing (in mM): 115 NaCl, 2.5 KCl, 1.8 CaCl2, and 10 HEPES at pH 7.4, whereas oocytes expressing all other nAChR subtypes were perfused with ND96 solution using a continuous Legato 270 push/pull syringe pump perfusion system (KD Scientific, Holliston, MA, USA) at a rate of 2 mL/min in an OPC-1 perfusion chamber of <20 µL volume (Automate Scientific, Berkeley, CA, USA).
(§5) Initially, oocytes were briefly washed with ND115/ND96 solution, followed by 3 applications of ACh at a half-maximal excitatory ACh concentration (EC50) for the nAChR subtypes (3 µM for hα4β2, 5 µM for hα1β1γδ and hα1β1εδ, 6 µM for hα3β2 and hα9α10, 100 µM for hα7 and 300 µM for hα3β4). Washout with bath solution was performed for 3 min between ACh applications. Oocytes were incubated with compounds for 5 min with the perfusion system turned off, followed by co-application of ACh and compound with flowing bath solution. All compound solutions were prepared in ND115/ND96 + 0.1% bovine serum albumin (BSA). Incubation with 0.1% BSA was performed to ensure that the BSA and the pressure of the perfusion system had no effect on nAChRs. […]

human (h) α7 nAChR = biological target: T2, human (h) α7 nAChR (Homo sapiens, UniProt P36544); assay: Two-electrode voltage clamp, inhibition of ACh-evoked currents at hα7 nAChR in Xenopus oocytes; assay type: cell-based; conditions: compound 100 µM; currents activated by 100 μM ACh; ratio ACh + compound to ACh alone; mean ± SD, n = 6–11
T2 construct: Jon Lindstrom (clone); host or cells: Xenopus laevis oocytes, cRNA injected
T2 sequence (P36544 23-502): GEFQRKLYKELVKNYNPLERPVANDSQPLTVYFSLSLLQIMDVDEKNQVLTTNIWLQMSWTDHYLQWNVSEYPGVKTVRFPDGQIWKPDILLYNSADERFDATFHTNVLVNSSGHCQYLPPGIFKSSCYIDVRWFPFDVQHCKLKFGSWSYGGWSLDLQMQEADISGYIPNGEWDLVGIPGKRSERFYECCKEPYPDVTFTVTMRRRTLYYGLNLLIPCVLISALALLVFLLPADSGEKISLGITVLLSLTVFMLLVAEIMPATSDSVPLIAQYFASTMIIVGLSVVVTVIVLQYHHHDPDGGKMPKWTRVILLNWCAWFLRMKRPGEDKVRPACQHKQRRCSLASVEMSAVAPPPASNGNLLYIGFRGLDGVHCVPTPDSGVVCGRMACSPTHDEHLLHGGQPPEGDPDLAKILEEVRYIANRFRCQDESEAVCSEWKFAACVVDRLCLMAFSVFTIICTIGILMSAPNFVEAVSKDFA
Method: as §1, §2, §3, §4, §5

human (h) α3β2 nAChR = biological target: T3, human (h) α3β2 nAChR (Homo sapiens, UniProt P17787+P32297); assay: Two-electrode voltage clamp, inhibition of ACh-evoked currents at hα3β2 nAChR in Xenopus oocytes; assay type: cell-based; conditions: for Relative current amplitude (h)α3β2: compound 100 µM, currents activated by 6 μM ACh, ratio ACh + compound to ACh alone, mean ± SD, n = 6–11
T3 construct: host or cells: Xenopus laevis oocytes, cRNA injected
T3 sequence (P32297 32-505): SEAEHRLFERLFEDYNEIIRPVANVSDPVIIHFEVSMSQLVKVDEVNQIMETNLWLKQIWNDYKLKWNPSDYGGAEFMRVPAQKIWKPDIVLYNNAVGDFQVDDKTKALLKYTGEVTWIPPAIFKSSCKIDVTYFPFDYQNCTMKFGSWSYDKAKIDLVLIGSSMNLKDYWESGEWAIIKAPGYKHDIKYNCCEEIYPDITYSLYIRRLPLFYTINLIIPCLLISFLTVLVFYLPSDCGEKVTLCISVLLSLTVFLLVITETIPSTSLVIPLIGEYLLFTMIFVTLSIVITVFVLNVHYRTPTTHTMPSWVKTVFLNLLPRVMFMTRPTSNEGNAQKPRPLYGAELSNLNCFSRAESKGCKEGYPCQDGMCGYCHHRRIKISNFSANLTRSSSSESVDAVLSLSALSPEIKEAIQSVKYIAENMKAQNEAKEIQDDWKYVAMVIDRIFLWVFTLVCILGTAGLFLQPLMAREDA
T3 sequence (P17787 26-502): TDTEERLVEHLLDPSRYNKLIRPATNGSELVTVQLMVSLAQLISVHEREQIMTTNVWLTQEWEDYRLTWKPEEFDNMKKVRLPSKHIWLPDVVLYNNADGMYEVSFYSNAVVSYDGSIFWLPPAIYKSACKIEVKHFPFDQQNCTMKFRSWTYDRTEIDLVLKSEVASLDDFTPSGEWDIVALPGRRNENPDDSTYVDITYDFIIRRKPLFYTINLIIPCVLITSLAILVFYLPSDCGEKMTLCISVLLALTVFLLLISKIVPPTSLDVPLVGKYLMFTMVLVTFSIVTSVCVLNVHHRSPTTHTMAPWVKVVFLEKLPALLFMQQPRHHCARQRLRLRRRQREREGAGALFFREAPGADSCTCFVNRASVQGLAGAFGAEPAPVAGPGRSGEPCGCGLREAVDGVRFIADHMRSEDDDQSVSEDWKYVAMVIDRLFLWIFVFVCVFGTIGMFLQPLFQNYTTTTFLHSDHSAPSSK
Method: as §1, §2, §3, §4, §5

human (h) α1β1εδ nAChR [1] = biological target: T4, human (h) α1β1εδ nAChR (Homo sapiens, UniProt P02708+P11230+Q04844+Q07001); assay: Two-electrode voltage clamp, inhibition of ACh-evoked currents at hα1β1εδ nAChR in Xenopus oocytes; assay type: cell-based; conditions: for Relative current amplitude (h) α1β1εδ: compound 100 µM, currents activated by 5 μM ACh, ratio ACh + compound to ACh alone, mean ± SD, n = 6–11
T4 construct: host or cells: Xenopus laevis oocytes, cRNA injected
Method: as §1, §2, §3, §4, §5
Target sequence in this assay (P02708 21-457 limits assumed): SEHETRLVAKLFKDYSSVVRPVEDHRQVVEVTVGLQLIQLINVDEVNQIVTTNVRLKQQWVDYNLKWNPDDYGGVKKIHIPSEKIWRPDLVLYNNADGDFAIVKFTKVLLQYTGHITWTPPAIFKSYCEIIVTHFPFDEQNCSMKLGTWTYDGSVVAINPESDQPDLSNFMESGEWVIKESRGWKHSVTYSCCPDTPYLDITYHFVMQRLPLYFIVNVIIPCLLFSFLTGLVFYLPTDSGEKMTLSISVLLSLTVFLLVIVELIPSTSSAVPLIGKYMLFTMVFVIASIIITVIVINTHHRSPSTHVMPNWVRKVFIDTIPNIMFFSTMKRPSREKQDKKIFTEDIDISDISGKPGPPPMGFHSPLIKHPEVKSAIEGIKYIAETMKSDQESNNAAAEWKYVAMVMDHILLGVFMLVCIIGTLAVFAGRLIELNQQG
Target sequence in this assay (P11230 24-501 limits assumed): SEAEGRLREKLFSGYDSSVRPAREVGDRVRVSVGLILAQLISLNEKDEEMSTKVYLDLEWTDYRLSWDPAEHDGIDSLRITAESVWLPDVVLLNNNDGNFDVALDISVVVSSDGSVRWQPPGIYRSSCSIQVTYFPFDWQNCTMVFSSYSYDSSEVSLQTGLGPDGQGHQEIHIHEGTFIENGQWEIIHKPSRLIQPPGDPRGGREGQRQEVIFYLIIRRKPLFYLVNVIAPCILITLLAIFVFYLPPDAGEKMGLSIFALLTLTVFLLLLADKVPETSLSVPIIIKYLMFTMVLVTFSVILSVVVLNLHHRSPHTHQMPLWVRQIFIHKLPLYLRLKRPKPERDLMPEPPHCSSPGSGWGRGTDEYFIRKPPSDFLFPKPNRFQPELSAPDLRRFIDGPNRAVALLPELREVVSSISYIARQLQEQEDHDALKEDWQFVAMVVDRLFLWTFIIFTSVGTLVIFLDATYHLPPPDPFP
Target sequence in this assay (Q04844 21-493 limits assumed): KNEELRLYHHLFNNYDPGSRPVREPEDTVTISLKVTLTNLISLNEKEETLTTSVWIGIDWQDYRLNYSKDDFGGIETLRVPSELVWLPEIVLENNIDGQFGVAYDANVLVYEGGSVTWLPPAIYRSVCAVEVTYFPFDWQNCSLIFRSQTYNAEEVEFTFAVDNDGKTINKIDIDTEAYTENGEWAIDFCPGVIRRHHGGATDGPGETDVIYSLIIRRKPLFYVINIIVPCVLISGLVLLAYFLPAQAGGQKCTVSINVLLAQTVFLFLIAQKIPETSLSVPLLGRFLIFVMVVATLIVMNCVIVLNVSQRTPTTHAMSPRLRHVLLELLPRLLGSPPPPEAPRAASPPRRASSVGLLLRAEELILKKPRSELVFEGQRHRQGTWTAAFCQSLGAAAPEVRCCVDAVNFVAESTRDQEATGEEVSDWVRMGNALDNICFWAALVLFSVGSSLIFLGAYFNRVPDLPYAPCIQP
Target sequence in this assay (Q07001 22-517 limits assumed): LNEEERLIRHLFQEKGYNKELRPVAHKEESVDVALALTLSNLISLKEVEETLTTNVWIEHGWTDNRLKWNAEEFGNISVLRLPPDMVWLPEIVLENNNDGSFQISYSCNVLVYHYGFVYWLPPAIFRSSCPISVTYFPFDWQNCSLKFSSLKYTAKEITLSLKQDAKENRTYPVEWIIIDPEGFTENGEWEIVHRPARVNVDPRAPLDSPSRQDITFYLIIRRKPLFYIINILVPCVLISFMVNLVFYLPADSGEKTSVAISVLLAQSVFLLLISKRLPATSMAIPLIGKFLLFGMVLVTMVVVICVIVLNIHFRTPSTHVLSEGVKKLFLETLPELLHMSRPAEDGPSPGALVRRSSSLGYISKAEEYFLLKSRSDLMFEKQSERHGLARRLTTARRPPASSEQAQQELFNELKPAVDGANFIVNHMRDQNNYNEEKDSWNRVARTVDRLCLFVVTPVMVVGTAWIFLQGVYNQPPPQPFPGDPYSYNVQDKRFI

human (h) α4β2 nAChR = biological target: T5, human (h) α4β2 nAChR (Homo sapiens, UniProt P17787+P43681); assay: Two-electrode voltage clamp, inhibition of ACh-evoked currents at hα4β2 nAChR in Xenopus oocytes; assay type: cell-based; conditions: for Relative current amplitude (h)α4β2: compound 100 µM, currents activated by 3 μM ACh, ratio ACh + compound to ACh alone, mean ± SD, n = 6–11
T5 construct: Jon Lindstrom; β2: OriGene (clones); host or cells: Xenopus laevis oocytes, cRNA injected
T5 sequence (P17787 26-502): as the sequence (P17787 26-502) above
T5 sequence (P43681 29-627): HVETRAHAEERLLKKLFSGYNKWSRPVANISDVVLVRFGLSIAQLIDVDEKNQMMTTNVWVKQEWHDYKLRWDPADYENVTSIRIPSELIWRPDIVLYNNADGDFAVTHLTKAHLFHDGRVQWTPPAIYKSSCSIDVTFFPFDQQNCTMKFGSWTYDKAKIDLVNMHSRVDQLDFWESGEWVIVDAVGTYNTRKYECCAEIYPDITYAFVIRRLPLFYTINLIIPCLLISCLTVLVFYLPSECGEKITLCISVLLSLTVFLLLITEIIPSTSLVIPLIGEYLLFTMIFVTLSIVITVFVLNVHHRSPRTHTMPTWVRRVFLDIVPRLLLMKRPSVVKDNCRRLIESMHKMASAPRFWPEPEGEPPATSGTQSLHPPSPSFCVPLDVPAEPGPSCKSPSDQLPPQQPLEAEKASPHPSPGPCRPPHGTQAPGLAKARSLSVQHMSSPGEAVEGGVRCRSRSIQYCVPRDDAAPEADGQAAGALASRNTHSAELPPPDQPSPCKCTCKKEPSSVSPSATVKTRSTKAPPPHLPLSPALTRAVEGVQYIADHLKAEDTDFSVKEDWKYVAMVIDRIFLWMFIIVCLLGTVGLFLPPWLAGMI
Method: as §1, §2, §3, §4, §5

human (h) α3β4 nAChR = biological target: T6, human (h) α3β4 nAChR (Homo sapiens, UniProt P30926+P32297); assay: Two-electrode voltage clamp, inhibition of ACh-evoked currents at hα3β4 nAChR in Xenopus oocytes; assay type: cell-based; conditions: for Relative current amplitude (h)α3β4: compound 100 µM, currents activated by 300 μM ACh, ratio ACh + compound to ACh alone, mean ± SD, n = 6–11
T6 construct: host or cells: Xenopus laevis oocytes, cRNA injected
T6 sequence (P30926 22-498): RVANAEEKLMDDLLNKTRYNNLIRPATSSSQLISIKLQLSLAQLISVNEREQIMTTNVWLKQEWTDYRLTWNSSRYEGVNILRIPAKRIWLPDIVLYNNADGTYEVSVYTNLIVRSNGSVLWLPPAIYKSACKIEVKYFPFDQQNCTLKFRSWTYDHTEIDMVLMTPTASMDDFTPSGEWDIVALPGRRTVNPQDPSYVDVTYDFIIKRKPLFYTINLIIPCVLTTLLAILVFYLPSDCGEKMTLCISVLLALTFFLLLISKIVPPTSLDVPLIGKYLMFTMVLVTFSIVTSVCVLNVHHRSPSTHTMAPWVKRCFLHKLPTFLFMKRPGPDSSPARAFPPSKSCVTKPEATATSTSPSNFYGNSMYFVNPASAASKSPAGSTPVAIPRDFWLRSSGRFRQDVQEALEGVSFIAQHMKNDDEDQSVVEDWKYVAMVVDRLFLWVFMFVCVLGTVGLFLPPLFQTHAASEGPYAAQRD
T6 sequence (P32297 32-505): as the sequence (P32297 32-505) above
Method: as §1, §2, §3, §4, §5

human (h) α9α10 nAChR = biological target: T7, human (h) α9α10 nAChR (Homo sapiens, UniProt Q9GZZ6+Q9UGM1); assay: Two-electrode voltage clamp, inhibition of ACh-evoked currents at hα9α10 nAChR in Xenopus oocytes; assay type: cell-based; conditions: for Relative current amplitude (h)α9α10: compound 100 µM, currents activated by 6 μM ACh, ratio ACh + compound to ACh alone, mean ± SD, n = 6–11
T7 construct: host or cells: Xenopus laevis oocytes, cRNA injected
Method: as §1, §2, §3, §4, §5

BEL-7047 cell lines = tested on: BEL-7047 cell lines; set-up: method as in doi:10.1016/j.tet.2008.11.078; conditions: read-out: IC50, cytotoxicity against BEL-7047 cell lines; cited from earlier work
HL60 cell lines = conditions: cited from earlier work
NF-kB = tested on: NF-kB; set-up: method as in doi:10.1016/j.tet.2012.09.038; conditions: cited from earlier work
Balamus amphitrite = tested on: Balamus amphitrite; set-up: method as in doi:10.1016/j.tetlet.2015.12.026; conditions: cited from earlier work
human (h) α1β1εδ nAChR [2] = biological target: T4, human (h) α1β1εδ nAChR; conditions: read-out: half-maximal inhibitory concentration (IC50), ACh-evoked currents mediated by hα1β1εδ; cited from earlier work
[3] = compound 100 µM (Figure 3, Table S1), 100 µM
[4] = compound 100 µM (Figure 3, Table S1)

Compound | Relative current amplitude (h)α1β1γδ (human (h) α1β1γδ nAChR) | Relative current amplitude (h)α7 (human (h) α7 nAChR) | Relative current amplitude (h)α3β2 (human (h) α3β2 nAChR) | Relative current amplitude (h) α1β1εδ (human (h) α1β1εδ nAChR [1]) | Relative current amplitude (h)α4β2 (human (h) α4β2 nAChR) | Relative current amplitude (h)α3β4 (human (h) α3β4 nAChR) | Relative current amplitude (h)α9α10 (human (h) α9α10 nAChR) | other results
CC(C)C(NC(=O)C(N)Cc1c[nH]c2ccccc12)C(=O)NC(C(=O)NC(Cc1ccccc1)C(=O)O)C(C)C (stereo not shown) [Compound 1, psegynamide A] (H-WVVF-OH; configuration not given here) | 0.664 ± 0.062 | 0.293 ± 0.074 | 0.435 ± 0.071 | 0.190 ± 0.056 | 0.637± 0.053 | 0.462 ± 0.069 | 0.103 ± 0.027 | 
COC(=O)[C@@H](Cc1ccccc1)NC(=O)[C@@H](NC(=O)[C@H](NC(=O)[C@@H](N)Cc1c[nH]c2ccccc12)C(C)C)C(C)C [Compound 2, psegynamide B] (H-W[dV]V[dF]-OMe) | 0.017 ± 0.014 | 0.566 ± 0.072 | 0.236 ± 0.069 | 0.024 ± 0.011 | 0.301 ± 0.039 | 0.071 ± 0.028 | 0.075 ± 0.036 | inhibition of ACh-evoked currents, α1β1γδ (human (h) α1β1γδ nAChR; [3]): > 70% and > 98%; inhibition at 100 µM (human (h) α3β2 nAChR; [4]): > 70%; inhibition of ACh-evoked currents, α1β1εδ (human (h) α1β1εδ nAChR [1]; [3]): > 70%; inhibition at 100 µM (human (h) α4β2 nAChR; [4]): > 70%; inhibition at 100 µM (human (h) α3β4 nAChR; [4]): > 70%; inhibition at 100 µM (human (h) α9α10 nAChR; [4]): > 70%
CC(C)[C@H](NC(=O)[C@H](NC(=O)[C@@H](N)Cc1c[nH]c2ccccc12)C(C)C)C(=O)N[C@H](Cc1ccc(O)cc1)C(=O)O [Compound 3, psegynamide C] (H-W[dV]V[dY]-OH) | 0.861 ± 0.084 | 0.368 ± 0.088 | 0.451 ± 0.056 | 0.648 ± 0.067 | 0.793 ± 0.078 | 0.675 ± 0.040 | 0.509 ± 0.041 | 
CC(C)[C@H](NC(=O)[C@H](NC(=O)[C@@H]1Cc2c([nH]c3ccccc23)CN1)C(C)C)C(=O)N[C@H](Cc1ccccc1)C(=O)O [Compound 4, psegynamide D] | 0.985 ± 0.019 | 0.228 ± 0.049 | 0.924 ± 0.069 | 0.757 ± 0.065 | 0.972 ± 0.057 | 0.670 ± 0.049 | 0.824 ± 0.064 | 
COC(=O)[C@@H](Cc1ccccc1)NC(=O)[C@@H](NC(=O)[C@H](NC(=O)[C@@H]1Cc2c([nH]c3ccccc23)CN1)C(C)C)C(C)C [Compound 5, psegynamide E] | 0.799 ± 0.063 | 0.399 ± 0.061 | 0.656 ± 0.074 | 0.392 ± 0.069 | 0.837 ± 0.061 | 0.656 ± 0.051 | 0.374 ± 0.073 | 
COC(=O)[C@@H](Cc1ccc(O)cc1)NC(=O)[C@@H](NC(=O)[C@H](NC(=O)[C@@H]1Cc2c([nH]c3ccccc23)CN1)C(C)C)C(C)C [Compound 6, psegynamide F] (H-[Tpi][dV]V[dY]-OMe) | 0.802 ± 0.096 | 0.838 ± 0.066 | 0.579 ± 0.077 | 0.618 ± 0.047 | 0.938 ± 0.076 | 0.777 ± 0.053 | 0.760 ± 0.062 | 
C[C@@H]1C=CC(=O)[C@@]2(C)CC[C@@H]3[C@@H]4[C@@](C)(CC[C@@]4(C)CO)C[C@@]132 [conidiogenone C] |  |  |  |  |  |  |  | IC50 (BEL-7047 cell lines): 900 nM; IC50 (HL60 cell lines; read-out: IC50, cytotoxicity against HL60 cell lines): 38 nM
CC(=O)c1cc(C)c(O)c(C[C@]23Cc4c(O)c(C(C)=O)cc(C)c4O[C@@]2(O)[C@@H](C)OC3=O)c1O [penilactone A] |  |  |  |  |  |  |  | NF-kB inhibitory rate (NF-kB): 40%
CC(=O)c1cc(C)c(O)c(C[C@@]23Cc4c(O)c(C(C)=O)cc(C)c4O[C@]2(O)[C@H](CC(=O)O)OC3=O)c1O [penilactone B] |  |  |  |  |  |  |  | NF-kB inhibitory rate (NF-kB): 40%
trichobotryside A |  |  |  |  |  |  |  | EC50, inhibiting the larvae settlement of Balamus amphitrite (Balamus amphitrite): 2.5 µg/mL
trisorbicillone A |  |  |  |  |  |  |  | IC50 (HL60 cell lines; read-out: IC50, cytotoxic against HL60 cell lines): 3140 nM
α-conotoxin GI (ECCNPACGRHYSC; ends and bridges not checked; cysteine pairing not given here; UniProt X5I9Y2 50-62, looked up) |  |  |  |  |  |  |  | IC50 (human (h) α1β1εδ nAChR [2]): 20 nM
